US11576987B2, “Compositions and methods of treating melanoma” (UNIVERSITY OF IOWA RESEARCH FOUNDATION, priority 2016, dated 2023)
Where a name gives a salt, the structure may show the parent alone.

Legend:
[1] = PBA co-administration: kidney and tumor uptake of [203Pb]DOTA-MCR1; type: in vivo, mice; details: PBA 120 mg/kg co-administered i.v. or i.p., 2 h p.i.
Method: FIGS. 14A-14B. […] Results are ID %/g tissue±SD; **P<0.01; ****P<0.0001. (B Right) Pre-administered of PBA (i.p. 60 mg/kg) and BRAFi (vemurafenib; p.o. 5 mg/kg) 3 h prior to tail vein injection of 13 MBq [^203Pb]DOTA-MCR1 in human (A2058) melanoma-bearing athymic nu/nu mice (SPECT image 1 h p.i.); (B Left) An identical animal was administered an identical dose of [^203Pb]DOTA-MCR1 without PBA/BRAFi (saline). Images were identically processed and analyzed using Inveon Workplace software (identical contrast, intensity, etc.).
PBA relieves ER-stress through nonspecific binding to misfolded proteins in the ER. Thus, it was hypothesized that co-injection could inhibit peptide uptake in kidneys in the same fashion as amino acid co-infusions used clinically. This is reasonable because the megalin-cubulin system for reuptake and recirculation of nutrients in the proximal and distal tubules involves nonspecific binding and endocytosis of proteins, amino acids, and nutrients. results support the hypothesis that co-injection of PBA can serve to reduce kidney accumulation of radiopeptides in the kidneys (FIGS. 14A-B).

[2] = system: BRAFi-resistant A375VR cells; experiment: Clonogenic survival of BRAFi-resistant melanoma cells; type: cell-based, human; details: in combination with 5 μM vemurafenib, up to 6 days, PBA as low as 500 μM
Method: FIGS. 13A-13B. PBA treatment promotes cell death of BRAFi-resistant metastatic melanoma and upregulates MCR1 expression in a time dpe. (A) BRAFi-resistant A375VR cells were incubated with 5 μM vemurafenib in combination with ER-stress-relieving drug 4-PBA for up to 6 days. […] (B) Flow cytometry analysis of MCR1 expression in A2058 and A375 malignant melanoma cells. Cells were treated with 3 mmole 4-PBA for 4 h and 24 h (n=3). The treated and untreated (control) cells were stained with anti-MC1R-phycoerythrin (PE) monoclonal antibody conjugate. Fluorescence intensity was corrected by auto-fluorescence of cells without staining and data were expressed as relative fluorescence intensity (IF) (vs. control)±SD.
Accumulation of misfolded-proteins causes upregulation and detachment of ER resident protein GRP78 from ER sensors proteins—activating the unfolded protein response (UPR) and downstream signaling pathways (including autophagy). […] Thus, the potential for a pharmacological treatment that would sensitize BRAFi-resistant cells to BRAFi by reducing ER-stress was considered. BRAFi-resistant A375VR melanoma cells were incubated with BRAFi vemurafenib alone and in combination with ER-stress relieving PBA.

MCR1 expression = experiment: Flow cytometry analysis of MCR1 expression in malignant melanoma cells; type: cell-based, human; details: BRAF^V600E mutant melanoma cell lines (A2058, A375), 3 mmole 4-PBA, 4 h and 24 h
Method: FIG. 1: Flowcytometry analysis of MCR1 expression in A375 malignant melanoma cells. A375 cells were treated with either 2 μmole Vemurafenib or 3 mmole 4-PBA for 4 h and 24 h (n=3). The treated and untreated (control) cells were stained with anti-MC1R-phycoerythrin (PE) monoclonal antibody conjugate. Fluorescence intensity was corrected by auto-fluorescence of cells without staining and data were expressed as relative (vs control) fluorescence intensity±SD. Statistical significance was determined by Student's T-test (*P<0.05; **P<0.01; ***P<0.001; ****P<0.0001).
(§1) FIG. 2: Flowcytometry analysis of MCR1 expression in A2058 malignant melanoma cells. […] Fluorescence intensity was corrected by auto-fluorescence of cells without staining and data were expressed as relative (vs control) fluorescence intensity±SD. Statistical significance was determined by Student's T-test (*P<0.05; **P<0.01; ***P<0.001; ****P<0.0001).
as §1, with “3:” for “2:”, “SK-Me13” for “A2058”, “****P<0.0001, N. S. non-significant).” for “****P<0.0001).”
FIGS. 11A-11D. […] Fluorescence intensity was corrected by PE-conjugated isotype. […]

O=C(O)CCCc1ccccc1 [PBA, 4-phenylbutyric acid, sodium salt]
kidney uptake of [203Pb]DOTA-MCR1 [1]: significantly blocked kidney uptake
tumor accumulation of [203Pb]DOTA-MCR1 [1]: did not affect tumor accumulation
clonogenic cell death [2]: ~90%
time dependency of MCR1 expression (MCR1 expression): significant (time dependent) increase in MCR1 expression
